Source: paper PMC11882969 (Nature Communications, 2025)
Several values for one entry are separate records, joined by “and”; a condition that tells them apart may be missing. Equal entries are not always repeated.

What was measured:
CB1 (rCB1) = CB1 (rCB1) (Rattus norvegicus, UniProt P20272); test: Single-point radioligand displacement screen; type: binding; conditions: 10 µM, 1 µM or 300 nM by cell colour (not visible)
hCB1 = hCB1 (Homo sapiens, UniProt P21554); test: bioSensAll ebBRET signaling profiling, hCB1; type: cell-based; set-up: host or cells: HEK293SL cells, transient PEI transfection; conditions: for Gi1 hCB1 response: Gi1 biosensor; for Gi1 hCB1 / GoB hCB1: single replicate values, FigS6a
[1] = Log [Compound] (M) -13, individual replicate values

hCB1, sequence (P21554 whole entry): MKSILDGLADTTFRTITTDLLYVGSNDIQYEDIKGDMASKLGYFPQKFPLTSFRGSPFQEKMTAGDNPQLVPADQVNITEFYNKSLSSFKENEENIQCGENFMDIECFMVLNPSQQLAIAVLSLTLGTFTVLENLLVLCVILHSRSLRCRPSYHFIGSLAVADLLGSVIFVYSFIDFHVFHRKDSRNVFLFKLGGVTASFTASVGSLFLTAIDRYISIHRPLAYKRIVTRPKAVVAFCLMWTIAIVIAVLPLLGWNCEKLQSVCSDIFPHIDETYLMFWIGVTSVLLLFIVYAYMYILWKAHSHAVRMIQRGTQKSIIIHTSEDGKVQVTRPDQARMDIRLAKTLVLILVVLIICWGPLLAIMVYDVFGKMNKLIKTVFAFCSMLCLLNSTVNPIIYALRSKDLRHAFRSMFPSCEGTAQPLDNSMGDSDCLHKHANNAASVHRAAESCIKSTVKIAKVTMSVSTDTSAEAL
CB1 (rCB1), sequence (P20272 whole entry): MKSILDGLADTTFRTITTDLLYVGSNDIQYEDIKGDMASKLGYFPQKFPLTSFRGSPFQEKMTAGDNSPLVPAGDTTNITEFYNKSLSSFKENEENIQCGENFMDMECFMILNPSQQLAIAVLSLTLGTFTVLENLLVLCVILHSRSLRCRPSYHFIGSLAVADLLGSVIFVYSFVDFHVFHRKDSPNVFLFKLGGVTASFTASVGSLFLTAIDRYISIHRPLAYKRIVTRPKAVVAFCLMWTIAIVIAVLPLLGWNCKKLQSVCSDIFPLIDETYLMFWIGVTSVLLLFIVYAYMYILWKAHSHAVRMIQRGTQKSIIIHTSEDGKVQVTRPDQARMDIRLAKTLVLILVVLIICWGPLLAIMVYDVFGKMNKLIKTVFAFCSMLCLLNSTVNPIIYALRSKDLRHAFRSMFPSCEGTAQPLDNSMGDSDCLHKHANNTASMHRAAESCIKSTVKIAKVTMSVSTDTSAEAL

CC(C)n1nc(-c2nnc(C(C)(C)Oc3ccc(Cl)cc3)o2)c2ccccc2c1=O [compound 41360]
% 1H-CP-55,940 displacement (mean) from single point screen (CB1 (rCB1)): 41.24%

Cc1cc(C(=O)N2CC3(CCC3)[C@@H]2[C@@H]2CCCO2)nn1-c1cccc(C(F)(F)F)c1 [‘3386]
Gi1 hCB1 response (hCB1; Log [Compound] (M) -4.22186): -31.6589
Gi1 hCB1 response (hCB1; Log [Compound] (M) -4.63927): -26.0187
Gi1 hCB1 response (hCB1; Log [Compound] (M) -5.47381): -11.5379
Gi1 hCB1 response (hCB1; Log [Compound] (M) -5.89285): -4.6
Gi1 hCB1 response (hCB1; Log [Compound] (M) -6.31878): 6.86
Gi1 hCB1 response (hCB1; Log [Compound] (M) -6.72585): -4.577
Gi1 hCB1 response (hCB1; Log [Compound] (M) -7.14267): -3.682
Gi1 hCB1 response (hCB1; Log [Compound] (M) -7.55284): 0.369
Gi1 hCB1 response (hCB1; Log [Compound] (M) -8): -1.959
Gi1 hCB1 response (hCB1; Log [Compound] (M) -8.22186): -1.847
Gi1 hCB1 response (hCB1; Log [Compound] (M) -8.39794): 6.792
Gi1 hCB1 response (hCB1; Log [Compound] (M) -8.68787): 5.83
Gi1 hCB1 response (hCB1; Log [Compound] (M) -9.15521): -6.435
Gi1 hCB1 response (hCB1; Log [Compound] (M) -9.61989): 5.561
Gi1 hCB1 response (hCB1; Log [Compound] (M) -10.0969): -3.167
Gi1 hCB1 response (hCB1; Log [Compound] (M) -10.5529): 5.808
Gi1 hCB1 response (hCB1; Log [Compound] (M) -11.0177): 14.3798
Gi1 hCB1 response (hCB1; Log [Compound] (M) -11.4949): 4.331
Gi1 hCB1 response (hCB1; Log [Compound] (M) -11.9208): 0.6376
Gi1 hCB1 response (hCB1; Log [Compound] (M) -12.3979): 3.01
Gi1 hCB1 response (hCB1; Log [Compound] (M) -12.8861): 17.2222
Gi1 hCB1 response (hCB1; [1]): 0.5257 and -2.921
Gi1 hCB1 (hCB1; Log [Compound] (M) -4.22186): -5.415
GoB hCB1 (hCB1; Log [Compound] (M) -4.22186): -7.725
Gi1 hCB1 (hCB1; Log [Compound] (M) -4.63927): -6.833
GoB hCB1 (hCB1; Log [Compound] (M) -4.63927): -8.211
Gi1 hCB1 (hCB1; Log [Compound] (M) -5.05788): -4.3047
GoB hCB1 (hCB1; Log [Compound] (M) -5.05788): -5.316
Gi1 hCB1 (hCB1; Log [Compound] (M) -5.47381): -2.408
GoB hCB1 (hCB1; Log [Compound] (M) -5.47381): -3.409
Gi1 hCB1 (hCB1; Log [Compound] (M) -5.89285): -1.499
GoB hCB1 (hCB1; Log [Compound] (M) -5.89285): -1.485
Gi1 hCB1 (hCB1; Log [Compound] (M) -6.31878): 1.292
GoB hCB1 (hCB1; Log [Compound] (M) -6.31878): 2.327
Gi1 hCB1 (hCB1; Log [Compound] (M) -6.72585): 0.5361
GoB hCB1 (hCB1; Log [Compound] (M) -6.72585): 1.033
Gi1 hCB1 (hCB1; Log [Compound] (M) -7.14267): 0.4282
GoB hCB1 (hCB1; Log [Compound] (M) -7.14267): 0.7269
Gi1 hCB1 (hCB1; Log [Compound] (M) -7.55284): 0.9215
GoB hCB1 (hCB1; Log [Compound] (M) -7.55284): 3.892
Gi1 hCB1 (hCB1; Log [Compound] (M) -8): 0.7057
GoB hCB1 (hCB1; Log [Compound] (M) -8): 1.158
Gi1 hCB1 (hCB1; Log [Compound] (M) -8.22186): 1.7386
GoB hCB1 (hCB1; Log [Compound] (M) -8.22186): -4.075
Gi1 hCB1 (hCB1; Log [Compound] (M) -8.39794): -1.406
GoB hCB1 (hCB1; Log [Compound] (M) -8.39794): 4.1437
Gi1 hCB1 (hCB1; Log [Compound] (M) -8.68787): 1.2761
GoB hCB1 (hCB1; Log [Compound] (M) -8.68787): -1.251
Gi1 hCB1 (hCB1; Log [Compound] (M) -9.15521): 1.261
GoB hCB1 (hCB1; Log [Compound] (M) -9.15521): -3.967
Gi1 hCB1 (hCB1; Log [Compound] (M) -9.61989): 1.816
GoB hCB1 (hCB1; Log [Compound] (M) -9.61989): -0.8377
Gi1 hCB1 (hCB1; Log [Compound] (M) -10.0969): 0.3511
GoB hCB1 (hCB1; Log [Compound] (M) -10.0969): 1.158
Gi1 hCB1 (hCB1; Log [Compound] (M) -10.5529): 1.014
GoB hCB1 (hCB1; Log [Compound] (M) -10.5529): 1.536
Gi1 hCB1 (hCB1; Log [Compound] (M) -11.0177): 0.7982
GoB hCB1 (hCB1; Log [Compound] (M) -11.0177): 0.4571
Gi1 hCB1 (hCB1; Log [Compound] (M) -11.4949): 1.029
GoB hCB1 (hCB1; Log [Compound] (M) -11.4949): 2.058
Gi1 hCB1 (hCB1; Log [Compound] (M) -11.9208): -0.1422
GoB hCB1 (hCB1; Log [Compound] (M) -11.9208): 1.68
Gi1 hCB1 (hCB1; Log [Compound] (M) -12.3979): 0.5053
GoB hCB1 (hCB1; Log [Compound] (M) -12.3979): 2.184
Gi1 hCB1 (hCB1; Log [Compound] (M) -12.8861): -0.04972
GoB hCB1 (hCB1; Log [Compound] (M) -12.8861): 1.176
Gi1 hCB1 (hCB1; Log [Compound] (M) -13): 2.124 and 3.311
GoB hCB1 (hCB1; Log [Compound] (M) -13): 2.399 and 2.327

COc1cccc(C(NC(=O)c2cc(C)n(-c3cccc(C(F)(F)F)c3)n2)c2ccco2)c1 (stereo not drawn) [‘1087]
Gi1 hCB1 response (hCB1; Log [Compound] (M) -4.22186): 111.515
Gi1 hCB1 response (hCB1; Log [Compound] (M) -4.63927): -38.2838
Gi1 hCB1 response (hCB1; Log [Compound] (M) -5.05788): -49.9669
Gi1 hCB1 response (hCB1; Log [Compound] (M) -5.47381): 11.0449
Gi1 hCB1 response (hCB1; Log [Compound] (M) -5.89285): -12.478
Gi1 hCB1 response (hCB1; Log [Compound] (M) -6.31878): -17.0885
Gi1 hCB1 response (hCB1; Log [Compound] (M) -6.72585): -9.994
Gi1 hCB1 response (hCB1; Log [Compound] (M) -7.14267): -10.3741
Gi1 hCB1 response (hCB1; Log [Compound] (M) -7.55284): 10.754
Gi1 hCB1 response (hCB1; Log [Compound] (M) -8): -2.496
Gi1 hCB1 response (hCB1; Log [Compound] (M) -8.22186): 59.7022
Gi1 hCB1 response (hCB1; Log [Compound] (M) -8.39794): 12.6788
Gi1 hCB1 response (hCB1; Log [Compound] (M) -8.68787): -1.377
Gi1 hCB1 response (hCB1; Log [Compound] (M) -9.15521): -24.5192
Gi1 hCB1 response (hCB1; Log [Compound] (M) -9.61989): 86.3361
Gi1 hCB1 response (hCB1; Log [Compound] (M) -10.0969): -14.3804
Gi1 hCB1 response (hCB1; Log [Compound] (M) -10.5529): -6.726
Gi1 hCB1 response (hCB1; Log [Compound] (M) -11.0177): 6.211
Gi1 hCB1 response (hCB1; Log [Compound] (M) -11.4949): 9.702
Gi1 hCB1 response (hCB1; Log [Compound] (M) -11.9208): -11.0679
Gi1 hCB1 response (hCB1; Log [Compound] (M) -12.3979): -4.555
Gi1 hCB1 response (hCB1; Log [Compound] (M) -12.8861): -5.652
Gi1 hCB1 response (hCB1; [1]): -4.331 and 29.5096
Gi1 hCB1 (hCB1; Log [Compound] (M) -4.22186): -6.833
GoB hCB1 (hCB1; Log [Compound] (M) -4.22186): -8.4986
Gi1 hCB1 (hCB1; Log [Compound] (M) -4.63927): -6.864
GoB hCB1 (hCB1; Log [Compound] (M) -4.63927): -10.0272
Gi1 hCB1 (hCB1; Log [Compound] (M) -5.05788): -7.357
GoB hCB1 (hCB1; Log [Compound] (M) -5.05788): -7.545
Gi1 hCB1 (hCB1; Log [Compound] (M) -5.47381): -6.895
GoB hCB1 (hCB1; Log [Compound] (M) -5.47381): -9.02
Gi1 hCB1 (hCB1; Log [Compound] (M) -5.89285): -4.166
GoB hCB1 (hCB1; Log [Compound] (M) -5.89285): -5.891
Gi1 hCB1 (hCB1; Log [Compound] (M) -6.31878): -2.0693
GoB hCB1 (hCB1; Log [Compound] (M) -6.31878): -3.409
Gi1 hCB1 (hCB1; Log [Compound] (M) -6.72585): -1.1443
GoB hCB1 (hCB1; Log [Compound] (M) -6.72585): -0.5859
Gi1 hCB1 (hCB1; Log [Compound] (M) -7.14267): 2.34
GoB hCB1 (hCB1; Log [Compound] (M) -7.14267): -0.6579
Gi1 hCB1 (hCB1; Log [Compound] (M) -7.55284): 3.064
GoB hCB1 (hCB1; Log [Compound] (M) -7.55284): 2.687
Gi1 hCB1 (hCB1; Log [Compound] (M) -8): 2.926
GoB hCB1 (hCB1; Log [Compound] (M) -8): 1.8778
Gi1 hCB1 (hCB1; Log [Compound] (M) -8.22186): 2.463
GoB hCB1 (hCB1; Log [Compound] (M) -8.22186): -2.043
Gi1 hCB1 (hCB1; Log [Compound] (M) -8.39794): -1.175
GoB hCB1 (hCB1; Log [Compound] (M) -8.39794): 1.572
Gi1 hCB1 (hCB1; Log [Compound] (M) -8.68787): 1.6
GoB hCB1 (hCB1; Log [Compound] (M) -8.68787): -4.093
Gi1 hCB1 (hCB1; Log [Compound] (M) -9.15521): 2.463
GoB hCB1 (hCB1; Log [Compound] (M) -9.15521): -0.01046
Gi1 hCB1 (hCB1; Log [Compound] (M) -9.61989): 1.8311
GoB hCB1 (hCB1; Log [Compound] (M) -9.61989): 0.3672
Gi1 hCB1 (hCB1; Log [Compound] (M) -10.0969): 1.353
GoB hCB1 (hCB1; Log [Compound] (M) -10.0969): 4.054
Gi1 hCB1 (hCB1; Log [Compound] (M) -10.5529): 3.666
GoB hCB1 (hCB1; Log [Compound] (M) -10.5529): 3.3884
Gi1 hCB1 (hCB1; Log [Compound] (M) -11.0177): 2.525
GoB hCB1 (hCB1; Log [Compound] (M) -11.0177): 3.856
Gi1 hCB1 (hCB1; Log [Compound] (M) -11.4949): 4.128
GoB hCB1 (hCB1; Log [Compound] (M) -11.4949): 2.507
Gi1 hCB1 (hCB1; Log [Compound] (M) -11.9208): 3.265
GoB hCB1 (hCB1; Log [Compound] (M) -11.9208): 1.033
Gi1 hCB1 (hCB1; Log [Compound] (M) -12.3979): 2.386
GoB hCB1 (hCB1; Log [Compound] (M) -12.3979): 3.442
Gi1 hCB1 (hCB1; Log [Compound] (M) -12.8861): 2.001
GoB hCB1 (hCB1; Log [Compound] (M) -12.8861): 2.363
Gi1 hCB1 (hCB1; Log [Compound] (M) -13): 2.402 and 0.3203
GoB hCB1 (hCB1; Log [Compound] (M) -13): 4.845 and 3.406
